Data set [1] is described as follows: H2S release via methylene blue assay (MBA). In kind it is physicochemical. To be noted: for H2S release / rate of H2S release, effect of alkyl functionalization: dithioesters 25 μM, cysteine 500 μM (20 equivalents), relative to compound 506a; for H2S release in the presence of cysteine: 25 μM compound, cysteine 500 μM (20 equiv.); for H2S release on treatment with GSH: 500 μM GSH; for H2S release on treatment with cysteine methyl ester: 500 μM cysteine methyl ester, compared with cysteine; for entropy of activation (ΔS‡), Eyring analysis: varied temperature; for H2S release on treatment with homocysteine: 500 μM homocysteine; for H2S release on treatment with penicillamine: 500 μM penicillamine; for H2S release in the absence of added nucleophiles (hydrolysis): H2O/PBS, physiological pH; for H2S release on co-incubation with cysteine and GSH: cysteine 500 μM + GSH 1 mM, compared with cysteine alone; for second-order rate constant (k2) of cysteine-triggered H2S release: cysteine 250-1250 μM, pseudo-first order conditions, plot of [Cys] vs kobs; for dependence of H2S release on cysteine concentration: increasing cysteine concentrations; for reaction order in cysteine: plot of log[Cys] versus log(kobs). As for the experimental part:
H2S Detection Materials and Methods—Phosphate buffered saline (PBS) tablets (1×, CalBioChem) were used to prepare buffered solutions (140 mM NaCl, 3 mM KCl, 10 mM phosphate, pH 7.4) in deionized water. Buffer solutions were sparged with N2 to remove dissolved oxygen and stored in an N2-filled glovebox. Donor stock solutions (in DMSO) were prepared inside an N2-filled glovebox and stored at −25° C. until immediately before use. Trigger stock solutions (in PBS) were freshly prepared in an N2-filled glovebox immediately before use.
General Procedure for Measuring H2S Release via Methylene Blue Assay (MBA)—Scintillation vials containing 20 mL of PBS were prepared in an N2-filled glovebox. To these solutions, 20 μL of 500 mM analyte stock solution (in PBS) was added for a final concentration of 500 μM. While stirring, the solutions were allowed to thermally equilibrate in heating block at the desired temperature for approximately 20-30 minutes. Immediately prior to donor addition, 0.5 mL solution of the methylene blue cocktail were prepared in disposable 1.5 mL cuvettes. The methylene blue cocktail solution contained: 200 μL of 30 mM FeCl3 in 1.2 M HCl, 200 μL of 20 mM N,N-dimethyl-p-phenylene diamine in 7.2 M HCl, and 100 μL of 1% (w/v) Zn(OAc)2. […] At set time points after the addition of donor, 500 μL reaction aliquots were added to the methylene blue cocktail solutions and incubated for 1 hour at room temperature shielded from light. Absorbance values at 670 nm were measured 1 hour after addition of reaction aliquot. Each experiment was performed in quadruplicate unless stated otherwise.
MBA Calibration Curve—Solutions containing 0.5 mL of the methylene blue cocktail and 0.5 mL PBS containing 500 μM cysteine were freshly prepared in disposable cuvettes (1.5 mL). Under inert conditions, a 10 mM stock solution of NaSH (Strem Chemicals) in PBS was prepared and diluted to 1 mM. Immediately after dilution, 1 mM NaSH was added to 1.0 mL solutions for final concentrations of 10, 20, 30, 40, and 50 μM. Solutions were mixed thoroughly, incubated at room temperature for 1 hour, and shielded from light. Absorbance values at 670 nm were measured after 1 hour.
In this example, the released H2S was measured and quantified using the methylene blue assay for H2S. In a typical use of this assay, aliquots from a reaction mixture with the H2S donor and cysteine are treated with 0.5 mL of a methylene blue assay mixture containing 0.1 mL zinc acetate (1% w/v), 0.2 mL FeCl3 (30 mM in 1.2 M HCl), and 0.2 mL N,N-dimethyl-p-phenylene diamine (20 mM in 7.2 M HCl)). After incubation for 1 hour, the absorbance at 670 nm is measured and converted to a H2S concentration by using the H2S calibration curve. To assess the H2S-releasing efficiency from the compound embodiments, a methylene blue calibration curve was used to quantify the H2S release (FIG. 2).

Data set [2] can be described thus: pKa and thiolate fraction of thiol triggers (literature). In kind it is physicochemical. To be noted: under physiological conditions.
The conditions of data set [3]: thiol; cited from earlier work.
[4] abbreviates: 25 μM donor, cysteine, after 1 hour.

Data on 11 compounds can be found in patent US11078157B1, “Compound embodiments that release H2S by reaction with a reactive compound and methods of making and using the same” (University of Oregon, priority 2018, dated 2021).

Entries after “also recorded” stand apart in the source; their conditions may differ.

Consider `S=C(SCc1ccccc1)c1ccccc1` [compound 506d], for which, in data set [1], the “H2S release / rate of H2S release, effect of alkyl functionalization” value (“H2S release / rate of H2S release” below) is recorded as “minimal H2S release”.

Consider `S=C(Oc1ccccc1)c1ccccc1` [compound 604a, O-Phenyl benzothioate], for which, in data set [1], the “H2S release in the presence of cysteine” value is on record as “result in H2S release” and the “reaction order in cysteine” value is “first-order dependence in cysteine”. For the same compound, in data set [1] (25 μM donor), the “H2S release on treatment with GSH” value was “does not result in H2S release; also recorded: did not generate H2S”; the “H2S release on treatment with cysteine methyl ester” value is “did not affect H2S production”; the “H2S release on treatment with homocysteine” value is “result in H2S release; also recorded: resulted in H2S release, although at a slower rate than from treatment with cysteine”; the “H2S release on treatment with penicillamine” value is reported as “result in H2S release”. In addition, in data set [1] (25 μM donor), the “H2S release in the absence of added nucleophiles (hydrolysis)” value is given as “no hydrolysis-mediated H2S release was observed”; the “H2S release on co-incubation with cysteine and GSH” value is reported as “results in H2S release, albeit at a slower rate than with Cys alone; also recorded: a reduced rate of H2S release was observed”; the “second-order rate constant (k2) of cysteine-triggered H2S release” value turned out to be 9.1 ± 0.3 M⁻¹ s⁻¹; the “dependence of H2S release on cysteine concentration” value is recorded as “dose-dependent release of H2S; also recorded: Increased cysteine concentrations led to increased rates of H2S production”. In data set [1] (25 μM donor, 500 μM N-acetylcysteine), the “H2S release on treatment with N-acetylcysteine” value was “did not, in H2S release”. Besides, in data set [1] (25 μM donor, 500 μM N-acetylcysteine methyl ester), the “H2S release on treatment with N-acetylcysteine methyl ester” value is “did not, in H2S release”. Also, in data set [1] (25 μM donor, 500 μM S-methylcysteine), the “H2S release on treatment with S-methylcysteine” value is recorded as “did not, in H2S release”. Besides, the H2S releasing efficiency in data set [1] (25 μM donor, 500 μM cysteine (20 equivalents)) was 80%. Also, in data set [1] (25 μM donor, 500 μM cysteine), the “entropy of activation (ΔS‡), Eyring analysis” value is recorded as −38±3 eu. In addition, the “H2S release on treatment with lysine” value in data set [1] (25 μM donor, 500 μM lysine) is “did not result in H2S release”. In addition, in data set [1] (25 μM donor, 500 μM serine), the “H2S release on treatment with serine” value is recorded as “did not result in H2S release”. The “H2S release on treatment with porcine liver esterase (PLE)” value in data set [1] (25 μM donor, PLE 1.0 U/mL) is reported as “H2S generation was not observed”. For the same compound, in data set [1] (25 μM donor, cysteine 500 μM + lysine 500 μM), the “Cysteine-triggered H2S release in the presence of lysine” value was “no change in H2S releasing-efficiency was observed”. In data set [1] (25 μM solution of donor, 500 μM cysteine (20 equivalents)), the H2S released came to 20 µM.

On to `CC(C)C(=S)Sc1ccccc1` [compound 506c], for which the “H2S release / rate of H2S release” value in data set [1] is listed as “enhanced rates of H2S release”.

For `S=C(Sc1ccccc1)c1ccccc1` [compound 506a], in data set [1] (25 μM donor), the “H2S release on treatment with GSH” value was “a significant H2S release was not observed”, the “H2S release on treatment with cysteine methyl ester” value is reported as “did not affect H2S release”, the “H2S release on treatment with homocysteine” value is listed as “a reduction in the H2S release rate” and the “H2S release on treatment with penicillamine” value is recorded as “significant H2S release was not observed”. Further, in data set [1] (25 μM donor), the “H2S release in the absence of added nucleophiles (hydrolysis)” value is given as “H2S release was not observed”; the “H2S release on co-incubation with cysteine and GSH” value was “Minimal change on the cysteine-triggered H2S release”; the “second-order rate constant (k2) of cysteine-triggered H2S release” value came to 1.8 ± 0.1 M⁻¹ s⁻¹; the “dependence of H2S release on cysteine concentration” value is listed as “Increasing amounts of H2S released with increasing cysteine concentrations”. Besides, in data set [1] (25 μM donor, 500 μM cysteine), the “entropy of activation (ΔS‡), Eyring analysis” value was −23±1 eu. In addition, in data set [1] (setting [4]), the “H2S released after 1 hour” value is recorded as “approximately 17 μM” and the H2S releasing efficiency is listed as around 68%. Further, the “H2S release with cysteine derivatives having masked thiol or amine” value in data set [1] (25 μM donor, thiol or amine moiety of cysteine masked) is on record as “reduced H2S release”. Besides, in data set [1] (Eyring analysis, 25 μM donor, 500 μM cysteine), the “experimentally-observed ΔH‡” value is given as 14.4 kcal/mol. Moreover, the “reaction order in cysteine” value in data set [1] is given as “first order in cysteine”.

In the case of `CC(=S)SCc1ccccc1` [compound 506e], the “H2S release / rate of H2S release” value in data set [1] is “H2S release was observed”.

Take `CC(C)C(=S)SCc1ccccc1` [compound 506f]: in data set [1], the “H2S release / rate of H2S release” value is reported as “relatively slow H2S release”.

Turning to `O=C(Oc1ccccc1)c1ccccc1` [phenyl benzoate, reference compound], the “H2S release in the presence of cysteine” value in data set [1] was “lack of H2S release; also recorded: Neither of these compounds released H2S”.

A word on the pKa: it is the pH at which an ionisable group is half protonated. With `N[C@@H](CCS)C(=O)O` [homocysteine], the “effective concentration of thiolate” value in data set [2] is recorded as around 0.03%. The pKa in data set [3] is on record as around 10.

With `N[C@@H](CS)C(=O)O` [cysteine], the “effective concentration of thiolate” value in data set [2] is around 10%. For the same compound, the pKa in data set [3] is on record as around 8.5.

Turning to `O=C(Sc1ccccc1)c1ccccc1` [S-phenyl benzothioate, reference compound], in data set [1], the “H2S release in the presence of cysteine” value is recorded as “lack of H2S release; also recorded: Neither of these compounds released H2S”.

Turning to `CC(=S)Sc1ccccc1` [compound 506b], the “H2S release / rate of H2S release” value in data set [1] is on record as “enhanced rates of H2S release”.
